Measured values published in the METLIN SMRT retention time set (Domingo-Almenara et al. 2019).

Assay: gradient 5% acetonitrile 3 min, to 50% in 2 min, to 85% in 15 min, held 3 min, 100 µL/min
Conditions: column: Zorbax Extend-C18 2.1 x 50 mm; eluents: water / acetonitrile, 0.1% formic acid
Method in brief: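 Standards, all pure, were combined into mixtures of ~100 molecules and run at 100 μL/min on a Zorbax Extend-C18 column (2.1 × 50 mm, 1.8 μm) with water and acetonitrile, each containing 0.1% formic acid. A coupled quadrupole time-of-flight mass spectrometer operated in positive and negative ionization mode. Retention time values come from computationally picked adduct peaks, each inspected manually.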

Structure (SMILES) | RP-LC retention time [s]
Cc1oc(-c2[nH]ncc2C(=O)N2CCCC2)cc1S(=O)(=O)N1CCC(C)CC1 | 746
CN1c2ccc(F)cc2C(=O)NC12CCN(C(=O)c1ccc(Cl)cc1)CC2 | 785
CC(C)C1c2nccn2CCCN1C(=O)c1n[nH]c(=O)c2ccccc12 (stereo not given) | 569
CCN1C=C(C(=O)OCc2ccccc2Cl)C(C)=NS1(=O)=O | 1010
O=C(Nc1ccccc1C(F)(F)F)N1CCC(N2CCN(Cc3cccc(F)c3)C(=O)C2=O)CC1 | 829
O=C(CN1CCN(C(=O)Nc2ccc(F)cc2)CC1=O)NC1CCCCC1 | 701
O=C(CN1CC=C(c2cnn(-c3ccc(F)cc3)c2)CC1)N1CCN(c2ccc(F)cc2)CC1 | 739
O=C(NC1CC1)c1nc2ccccn2c1-c1ccc(F)cc1 | 709
O=C(CN1CN(c2ccccc2)c2ncccc2S1(=O)=O)Nc1cccc(Cl)c1 | 983
CCOC(=O)C1CCN(C(=O)c2sc(Nc3cccc(C)n3)nc2C)CC1 | 774
Cn1nc(-c2nnc(-c3ccccc3Cl)o2)c2c1CCN(C(=O)Nc1ccccc1)C2 | 849
O=C1COc2ccc(Cl)cc2N1Cc1nc(-c2ccc(OC(F)(F)F)cc2)no1 | 1210
CCCSc1ncnc2[nH]ncc12 | 837
COc1ccc(-c2noc(C3(NC(=O)c4cccc(C#N)c4)CCCCC3)n2)cc1 | 1110
CCOc1ccc(-c2ccc(=O)n(Cc3nc(-c4ccc(F)cc4)no3)n2)cc1 | 1090
Cc1cc2c(cc1S(=O)(=O)N1CCCC1C(=O)NCc1ccc(Cl)cc1)OCC(=O)N2 (stereo not given) | 806
COc1ccc(OC)c(CNC(=O)c2[nH]c(C)c(S(=O)(=O)N3CCCC3)c2C)c1 | 822
COc1ccc(Cl)cc1S(=O)(=O)N1CCC(n2cnnc2C(C)C)CC1 | 732
Cn1nc(N2CCC(NC(=O)CCn3cccn3)C2)ccc1=O (stereo not given) | 582
CCCOc1nccnc1NC1CCN(C(=O)c2ccco2)CC1 | 748
CC(=O)C1=C(C)N(Cc2ccccc2)C(=O)C1(NC(=O)C1CCCCC1)C(F)(F)F (stereo not given) | 1020
Cc1ccoc1C(=O)N1CCCn2ccnc2C1c1cnn(C)c1 (stereo not given) | 570
Cc1ccc(-c2cc3c(=O)n(Cc4noc(-c5ccccc5)n4)ccn3n2)c(C)c1 | 1160
O=C(Nc1ccc(F)cc1)c1cnc(-c2ccc(F)cc2)nc1-c1ccncc1 | 898
CCN1C(=O)COc2ccc(-c3csc(NC(=O)c4ccc(Cl)cc4)n3)cc21 | 1090
Cc1nc2cc(-c3noc(-c4ccncc4)n3)ccc2n(C2CCCC2)c1=O | 1130
CCc1nn(C)c(=O)c2cc(S(=O)(=O)NCc3ccccc3)cn12 | 831

Structure (SMILES) | RP-LC retention time [s]
Cc1cc2c(c(=O)n(-c3ccc(F)cc3)c(=O)n2CC(=O)Nc2ccc(F)cc2)n1C | 825
COc1ccc2c(c1)C1(CCN(S(=O)(=O)c3ccc(F)c(C)c3)C1)C(=O)N2C (stereo not given) | 973
Cc1ccc(C)c(NC(=O)C2CCCN(S(=O)(=O)c3cn(C(C)C)cn3)C2)c1 (stereo not given) | 781
CC1CC(C)CN(S(=O)(=O)N2CCCC(C(=O)NCc3ccc(F)cc3)C2)C1 (stereo not given) | 1060
CN1c2ccccc2C(=O)NC12CCN(C(=O)NCc1ccc(F)cc1)CC2 | 724
CCCn1cc(CCNC(=O)Cc2ccccc2Cl)c2cccnc21 | 770
CN(CCc1noc(-c2ccccc2)n1)C(=O)Nc1cccc(Br)c1 | 977
CCn1cc(CC(=O)NCc2cc(F)cc(F)c2)c2cccnc21 | 739
COc1cccc(C(=O)NCc2nn(C)c3ccccc23)c1 | 779
COc1ccc(C)cc1NC(=O)Nc1c(-c2ccc(F)cc2)nc2ccccn12 | 714
Cc1ccc(C(=O)N2CCN(c3nnc4cccc(C)n34)CC2)cc1 | 670
Cc1cc(NS(=O)(=O)c2ccc(-c3nnc(C4CCC4)o3)o2)ccc1F | 963
CC1=C(c2ccccc2)S(=O)(=O)N=C1N1CCC(NC(=O)c2ccoc2)CC1 | 733
CCCN1CCN(C(=O)CN2CCN(C(=O)Nc3ccc(Br)cc3)CC2=O)CC1 | 597
O=C(CCNc1c(-c2ccccc2)nc2cnccn12)NCc1cccc(F)c1 | 698
FC(F)(F)c1cccc(N2CCN(c3ncnc4sccc34)CC2)c1 | 987
Cc1ccc(-c2nc3cnccn3c2Nc2cccc(C(F)(F)F)c2)cc1 | 972
Cc1nnc(C2CCCCCN2C(=O)c2ccoc2C)o1 (stereo not given) | 699
COc1cccc(CC(=O)N2C[C@@H]3C[C@H]2C[C@@H]3NS(=O)(=O)c2ccccc2)c1 | 764
COCCN1CC2(CCN(S(=O)(=O)c3cccc(Cl)c3)CC2)C1c1ccccc1 (stereo not given) | 730
CCn1c(N2CCC(C(=O)NC3CCCCCC3)CC2)cc(=O)n(C)c1=O | 855
CC(C)CC(NC(=O)c1ccc(F)cc1)C(=O)Nc1nc2ccccc2[nH]1 (stereo not given) | 746
CCN1CCCn2cc(S(=O)(=O)Nc3cc(C)cc(C)c3)cc2C1=O | 768
O=S(=O)(c1ccc(F)cc1F)N1CC(COc2ccncc2)C2(CCOCC2)C1 (stereo not given) | 613
Cc1oc(-c2ccc(Cl)cc2)nc1CN1CCCC(C(=O)NC2CCCCC2C)C1 (stereo not given) | 835
CCOc1ccc2ncc(C#N)c(NCc3ccc(OC)c(OC)c3)c2c1 | 663

Second part, the molecule after the results:

RP-LC retention time [s] | Structure (SMILES)
656 | CCOC(=O)Cc1ccc(NC(=O)N2CCN(c3nc4ccccc4n3C)CC2)cc1
887 | CC(=O)c1ccc(NC(=O)CCSc2ccc(Cl)cc2)cc1
784 | O=C(Nc1cccc2c1N(C(=O)c1ccco1)CCC2)c1ccco1
630 | COC(=O)c1cnc2nc(C)ccc2c1Nc1ccc(OC)c(OC)c1
576 | CN(C)CCNC(=O)Cn1c2ccccc2c2cnn(C)c(=O)c21
630 | O=C(Cn1c(=O)oc2cc(Cl)ccc21)N1CCN(c2ccccn2)CC1
782 | CCCC(=O)NC(C)c1nc(-c2ccccc2)no1 (stereo not given)
560 | OC1(c2ccccn2)CCOC2(CCN(Cc3c(F)cccc3Cl)CC2)C1 (stereo not given)
587 | CN(Cc1nc2ccccc2n1CC(=O)N1CCOCC1)C(=O)c1ccco1
772 | CC(=O)c1cccc(C(=O)N2CCC3(CC2)N=C(c2ccc(C)cc2)NO3)c1
641 | O=C(NCCc1ccncc1)C1CN(S(=O)(=O)c2ccccc2)CC12CCCCC2 (stereo not given)
983 | COc1ccc(N2CC(c3noc(-c4cccc(N(C)C)c4)n3)CC2=O)cc1 (stereo not given)
976 | CCc1noc(-c2nc(-c3ccc(OC)cc3OC)no2)n1
1100 | COc1ccc(NC(=O)C2CCN(c3nccnc3Sc3ccccc3)CC2)cc1Cl
628 | Cn1cnc(S(=O)(=O)N2CCC(c3noc(-c4ccncc4)n3)C2)c1 (stereo not given)
951 | COc1cc(CC(=O)N2CCc3cc(-c4cc(C)no4)ccc32)cc(OC)c1
574 | CCN1CCN(CCNC(=O)c2ccc3c(c2)NC(=O)C2CCCCN32)CC1 (stereo not given)
836 | CC(C)CCN1CC(=O)N(Cc2ccc(N3CCOCC3)cc2)C(c2cccs2)C1=O (stereo not given)
651 | CCC(=O)N1N=C(c2cccc(NS(=O)(=O)CC)c2)CC1c1cccc([N+](=O)[O-])c1 (stereo not given)

RP-LC retention time [s] | Structure (SMILES)
926 | COc1ccc(-c2noc(CSc3nccn3-c3ccc(C)cc3)n2)cc1
880 | O=C(Cn1ccn2nc(-c3ccc(F)cc3)c(CO)c2c1=O)Nc1cc(F)cc(F)c1
615 | Cc1ccc(F)c2c(=O)c3c([nH]c12)CCN(CC(=O)Nc1ccc2c(c1)OCO2)C3
604 | CCC(CC)NC(=O)C1CCN(c2cn[nH]c(=O)c2)CC1
655 | CCc1cc(C(=O)N2CCCC2)nc2cc(-c3cccs3)nn12
1070 | O=C(Cn1cccc1-c1nc(-c2ccc3c(c2)OCO3)no1)N1CCN(c2ccccc2)CC1
823 | Cc1nn(C(C)C(=O)NCCCOC(C)C)c(=O)c2c(C)n(-c3ccccc3)nc12 (stereo not given)
640 | COc1ccc(-n2c(CN3CCN(C(=O)NC(C)(C)C)CC3)nc3cccnc32)cc1
582 | CN1CCN(CCCNC(=O)CCCn2c(=O)c3cccn3c3ccc(F)cc32)CC1
806 | CCn1c(=O)c(=O)n(CC(=O)NC2CCCCCCC2)c2cccnc21
913 | CCOc1ccc(NC(=O)Nc2nccn(-c3ccccc3)c2=O)cc1
785 | Cc1cc(S(=O)(=O)N2CC(Cc3nncn3C3CCCC3)C2)ccc1Cl
751 | CCOc1ccc(CNC(=O)CN2CCN(Cc3ccc(F)cc3)C2=O)cc1OC
956 | Cc1cc(C(=O)N2CCC(Oc3nc4c(Cl)cccc4s3)CC2)no1
775 | CCC(C)NC(=O)CSc1cc(N2CCN(c3ccc(OC)cc3)CC2)ncn1 (stereo not given)
1000 | COc1ccc(Cc2nc(-c3cccc(-c4ccn[nH]4)c3)no2)c(Cl)c1
828 | O=C(O)c1nnn(-c2ccc(Cl)cc2)c1C(F)(F)F
1120 | CSc1cccc(NC(=O)c2cn(C)nc2S(=O)(=O)N2CCC(C)CC2)c1
